Results as given in patent US11123340B2, “Small-molecule UT-A-selective urea transport inhibitors” (The Regents of the University of California, priority 2014, dated 2021).
Several values for one entry are separate records, joined by “and”; a condition that tells them apart may be missing. Equal values may be shown once.

How the values were obtained:
MDCK cell monolayers = assay: Inhibitor permeability across MDCK cell monolayers (LC/MS); assay type: in vitro ADME, canine; details: computed from surface-to-volume considerations
Procedure: UT-A1 expressing MDCK cells were grown on 12-mm diameter collagen-coated Transwell inserts (0.4 μm pore size; Costar, Costar, N.Y.) to form tight monolayers (resistance>500 Ωcm^2), as described (see, e.g., Levin et al. (2007) FASEB J. 21, 551-563). Urea flux in the basolateral-to-apical direction was measured in response to a 15 mM urea gradient in which PBS containing forskolin (10 μM), with or without UT-A1 inhibitor and 0.7 mM phloretin, was added to both the apical-facing (0.2 mL) and basal-facing (2 mL) surfaces. After 30 min the basal-facing solution was replaced by PBS containing test compound+15 mM urea. Apical fluid samples (5 μL) were collected at specified times for enzymatic assay of urea (QUANTICHROME Urea Assay Kit; BioAssay Systems, Hayward, Calif.). To measure inhibitor permeability across MDCK cell layers, compounds (20 μM) were added on the basal-facing surface and fluid samples (20 μL) from the apical-facing surface were collected at different time points and analyzed by LC/MS.
To further evaluate the potential site of inhibitor action, the kinetics of UT-A1 inhibition was measured by assay of UT-A1 inhibition at different times after compound addition. […] To assess inhibitor membrane permeability transport of UTAinh-E02 and UTAinh-F11 across MDCK monolayers grown on porous filters by LC/MS was measured. Transport of UTAinh-F11 was much faster than that of UTAinh-E02 (FIG. 3C, right lower panel), with computed transepithelial permeability coefficients of […] and 1.1×10^−5 cm/s, respectively. From surface-to-volume considerations, the equilibration times were computed of UTAinh-E02 and UTAinh-F11 to be 250 and 14 s, respectively, in MDCK cells, which are consistent with intracellular sites of action of both inhibitors.

rat UT-A1 = target: T1, rat UT-A1 (Rattus norvegicus, UniProt Q62668); assay: UT-A1 inhibition, fluorescence plate reader assay in MDCK cells expressing UT-A1, AQP1 and YFP-H148Q/V163S; assay type: cell-based
T1 construct: expressed in transfected cells; host or cells: MDCK cells stably co-expressing rat UT-A1, human AQP1 and YFP-H148Q/V163S
T1 sequence (Q62668 1-929): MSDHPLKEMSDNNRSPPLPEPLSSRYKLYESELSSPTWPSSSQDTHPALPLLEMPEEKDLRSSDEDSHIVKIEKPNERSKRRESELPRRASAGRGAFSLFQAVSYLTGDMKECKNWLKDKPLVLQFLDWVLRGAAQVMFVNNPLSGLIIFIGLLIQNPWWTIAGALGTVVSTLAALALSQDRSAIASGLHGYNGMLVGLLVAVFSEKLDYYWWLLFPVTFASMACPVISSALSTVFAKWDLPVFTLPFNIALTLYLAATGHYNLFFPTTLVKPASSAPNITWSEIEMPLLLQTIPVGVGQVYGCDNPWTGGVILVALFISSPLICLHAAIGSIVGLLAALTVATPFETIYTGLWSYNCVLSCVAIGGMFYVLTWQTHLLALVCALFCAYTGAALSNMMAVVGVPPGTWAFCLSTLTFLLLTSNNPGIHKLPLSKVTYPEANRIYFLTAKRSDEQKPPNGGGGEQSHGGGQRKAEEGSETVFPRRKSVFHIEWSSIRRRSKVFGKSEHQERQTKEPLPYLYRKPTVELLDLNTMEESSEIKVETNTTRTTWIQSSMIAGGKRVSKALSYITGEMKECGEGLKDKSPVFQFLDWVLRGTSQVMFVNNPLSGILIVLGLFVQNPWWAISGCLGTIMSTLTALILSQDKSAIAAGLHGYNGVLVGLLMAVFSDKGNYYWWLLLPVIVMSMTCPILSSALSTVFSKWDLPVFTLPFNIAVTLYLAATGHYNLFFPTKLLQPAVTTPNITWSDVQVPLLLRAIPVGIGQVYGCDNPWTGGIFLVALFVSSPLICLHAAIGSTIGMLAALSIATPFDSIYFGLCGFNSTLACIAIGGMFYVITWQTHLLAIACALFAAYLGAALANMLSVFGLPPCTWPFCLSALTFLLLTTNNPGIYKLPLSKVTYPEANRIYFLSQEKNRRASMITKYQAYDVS
Procedure: Primary screening was done using a collection of 50,000 chemically diverse, drug-like compounds from ChemDiv (San Diego, Calif.). For analysis of structure-activity relationships, >300 commercially available analogs (ChemDiv and Asinex, Winston-Salem, N.C.) were tested. Cells were plated on black 96-well Costar microplates with clear plastic bottoms (Corning, Corning, N.Y.) at 15,000 cells/well and cultured for 24 h at 37° C. before assay. Microplates containing cultured cells were washed twice with PBS and 150 μL of test compound (25 μM final) in PBS was added. Eighty wells contained test compounds, and the first and last columns of each plate contained negative (dimethyl sulfoxide, DMSO) and positive (0.35 mM phloretin) controls. The assays were done on a plate reader (Tecan Trading AG, Switzerland) equipped with a custom YFP filter set. Each assay consisted of a continuous 15-s read (5 Hz) in which 50 μL of 3.2 M urea in PBS was injected at 1 s (at 130 μL/s) to give a 800 mM final urea gradient.
MDCK cells stably expressing rat UT-A1 (see, e.g., Frohlich et al. (2006) Am J Physiol Cell Physiol. 291, C600-D606), YFP-H148Q/V163 S (see, e.g., Galietta, et al. (2001) FEBS Lett. 499, 220-224) and human AQP1, as described previously (see, e.g., Esteva-Font et al. (2013) Chem Biol. 20, 1235-1244), were grown in Dulbecco's modified Eagle medium (DMEM) containing 10% fetal bovine serum (FBS), penicillin G (100 U/mL), streptomycin (100 μg/mL), zeocin (500 μg/mL), geneticin (600 μg/mL) and Hygromycin (500 μg/mL) at 37° C., 5% CO2. A Cell Clone with bright YFP fluorescence and relatively low AQP1 expression was used for the screen to maximize dynamic range.
In order to identify UT-A inhibitors suitable for testing in rats, a collection of 50,000 synthetic small molecules was screened. As diagrammed in FIG. 1A (top), the fluorescence cell-based screen utilized MDCK cells stably rat expressing UT-A1, water channel AQP1 and the cytoplasmic chloride-sensing fluorescent protein YFP-H148Q/V163S. As described and validated previously (see, e.g., Esteva-Font et al. (2013) Chem Biol. 20, 1235-1244), extracellular addition of urea results in osmotic water efflux and cell shrinking, which increases intracellular chloride concentration and reduces YFP fluorescence. Urea entry results in increasing YFP fluorescence as cells re-swell. Inhibitors of UT-A1 urea transport produce a lesser reduction in fluorescence and slowed recovery.

Structure (SMILES) | equilibration time in MDCK cells (MDCK cell monolayers) | IC50 (rat UT-A1)
CC(=O)Nc1ccc(-c2csc(-c3c[nH]c4ccccc34)n2)cc1 [UTA1inh-E02, N-(4-(2-(1H-indol-3-yl)thiazol-4-yl)phenyl)acetamide] | 250 s | ~1 µM and 1 µM
COc1ccc(C)cc1S(=O)(=O)Nc1ccc(Cl)c(N2CCCS2(=O)=O)c1 [UTA1inh-F11, N-[4-Chloro-3-(1,1-dioxido-1,2-thiazolidin-2-yl)phenyl]-2-methoxy-5-methylbenzene-sulfonamide] | 14 s | 1 µM
